Assay results as given in publication PMC4861708 (Frontiers in Cell and Developmental Biology, 2016).
Where a SMILES comes first, the peptide text is derived from it. [ ]: non-standard residue; d: D form. The star is where a group is joined. Orn(α-tetramethylguanidino) = CN(C)C(=N[C@@H](CCCN)C(=O)*)N(C)C; Orn = NCCC[C@H](N)C(=O)O

Columns and labels:
in vitro = conditions: mouse, mouse serum
Protocol: Peptide solutions (1 g/L) were added to mouse serum to obtain final concentrations of 70 mg/L peptide and incubated under constant shaking at 37°C. After 0, 1, 2, 3, and 6 h aliquots (95 μL) were precipitated with aqueous TCA (25 μL, 15% w/v), incubated for 10 min on ice, and centrifuged (5 min, 12,000 × g, Eppendorf mini spin centrifuge). An aliquot of the supernatant (95 μL) was neutralized with sodium hydroxide (8 μL, 1 mol/L) and diluted with aqueous acetonitrile solution (3% acetonitrile, 0.1% TFA; 200 μL). Peptides were quantified by the peak areas obtained by analytical RP-HPLC on a Jupiter C18-column (ID: 2 mm) using a linear aqueous acetonitrile gradient with 0.1% (v/v) TFA (absorbance recorded at 214 nm). Peak areas of all time points were normalized to the initial peak area obtained after “0 min incubation” (= 100%). Experiments were carried out as triplicates in parallel and half-life times were calculated using GraphPad Prism 5.0.

P. aeruginosa DSM 1117 = assay: Transmission electron microscopy, morphological changes; format: cell-based, Pseudomonas aeruginosa; conditions: 1 h
Protocol: Peptide-bacteria mixtures were fixed (2% glutaraldehyde, 5 mmol/L CaCl2, 10 mmol/L MgCl2 in 0.1 mol/L sodium cacodylate buffer, pH 7.4) overnight at 4°C. […] Samples were rinsed with distilled water (5 × 10 min), incubated with aqueous uranylacetate (0.5% w/v) for 1 h at 4°C, washed with distilled water (3 × 10 min), and embedded in Epon. The hardened blocks were sectioned (50 nm) on a UCT ultramicrotome (Leica, Vienna, Austria), stained with uranyl acetate and lead citrate on an AC20 system (Leica), and visualized at a Tecnai 12 electron microscope (FEI, Eindhoven, The Netherlands) at 80 kV. Morphological effects were quantified on average for 25 cells per condition.

## CC(C)C[C@H](NC(=O)[C@H](CCCNC(=N)N)NC(=O)[C@@H]1CCCN1C(=O)[C@H](Cc1c[nH]cn1)NC(=O)[C@@H]1CCCN1C(=O)[C@@H]1CCCN1C(=O)[C@H](CCCNC(=N)N)NC(=O)[C@@H]1CCCN1C(=O)[C@H](CCCNC(=N)N)NC(=O)[C@@H]1CCCN1C(=O)[C@H](CCCN)NC(=O)[C@H](Cc1ccc(O)cc1)NC(=O)[C@@H](NC(=O)[C@@H]1CCCN1C(=O)[C@H](CCCNC(=N)N)NC(=O)[C@H](CCCN)NC(=O)[C@H](Cc1c[nH]c2ccccc12)NC(=O)[C@H](CCCN)NC(=O)[C@H](Cc1c[nH]c2ccccc12)NC(=O)[C@H](CCCN)NC(=O)[C@H](Cc1c[nH]c2ccccc12)NC(=O)[C@H](CCCN)N=C(N(C)C)N(C)C)C(C)C)C(=O)O [Api794, gu-O(WO)3RPVYOPRPRPPHPRL-OH] ({Orn(α-tetramethylguanidino)}-W[Orn]W[Orn]W[Orn]RPVY[Orn]PRPRPPHPRL-OH)
In vitro; Half-life time against serum proteases, serum (abstract)
  half-life at 70 mg/L: > 5 h
In vitro; Half-life time mouse serum, 37°C
  half-life at 70 mg/L: 5.18 h
P. aeruginosa DSM 1117; 16 µg/mL
  Cells spongy: 0%
  DNA/ribosomes relocalization: +++, extremely relocalized: 0%
  DNA/ribosomes relocalization: ++, relocalized: 23%
  DNA/ribosomes relocalization: +, starting: 37%
  DNA/ribosomes relocalization: -, no: 40%
  Membrane: b, broken: 0%
  Membrane: i, intact: 100%
  Membrane: r, ruptured: 0%
  Ribosome clustering: +++, extremely clustered: 0%
  Ribosome clustering: ++, clustered: 0%
  Ribosome clustering: +, starting: 80%
  Ribosome clustering: -, no: 20%
  Vesicle release: 87%
  dissociated Fragments: +, small and thin: 10%
  dissociated Fragments: -, no: 77%
  dissociated Fragments: LV, large vesicles: 0%
P. aeruginosa DSM 1117; 64 µg/mL
  Cells spongy: 0%
  DNA/ribosomes relocalization: +++, extremely relocalized: 83%
  DNA/ribosomes relocalization: ++, relocalized: 10%
  DNA/ribosomes relocalization: +, starting: 3%
  DNA/ribosomes relocalization: -, no: 3%
  Membrane: b, broken: 80%
  Membrane: i, intact: 20%
  Membrane: r, ruptured: 47%
  Ribosome clustering: +++, extremely clustered: 73%
  Ribosome clustering: ++, clustered: 10%
  Ribosome clustering: -, no: 3%
  Vesicle release: 20%
  dissociated Fragments: ++, long and thin: 63%
  dissociated Fragments: +, small and thin: 20%
  dissociated Fragments: LV, large vesicles: 30%
P. aeruginosa DSM 1117; 256 µg/mL
  Cells spongy: 80%
  DNA/ribosomes relocalization: +++, extremely relocalized: 100%
  DNA/ribosomes relocalization: ++, relocalized: 0%
  DNA/ribosomes relocalization: +, starting: 0%
  DNA/ribosomes relocalization: -, no: 0%
  Membrane: b, broken: 67%
  Membrane: i, intact: 34%
  Membrane: r, ruptured: 67%
  Ribosome clustering: +++, extremely clustered: 100%
  Ribosome clustering: ++, clustered: 0%
  Ribosome clustering: +, starting: 0%
  Ribosome clustering: -, no: 0%
  Vesicle release: 3%
  dissociated Fragments: ++, long and thin: 80%
  dissociated Fragments: -, no: 7%
  dissociated Fragments: LV, large vesicles: 93%
P. aeruginosa DSM 1117; 512 µg/mL
  Cells spongy: 87%
  DNA/ribosomes relocalization: +++, extremely relocalized: 100%
  DNA/ribosomes relocalization: ++, relocalized: 0%
  DNA/ribosomes relocalization: +, starting: 0%
  DNA/ribosomes relocalization: -, no: 0%
  Ribosome clustering: +++, extremely clustered: 93%
  Ribosome clustering: ++, clustered: 7%
  Ribosome clustering: +, starting: 0%
  Ribosome clustering: -, no: 0%
  Vesicle release: 0%
  dissociated Fragments: ++, long and thin: 60%
  dissociated Fragments: +, small and thin: 0%
  dissociated Fragments: -, no: 40%
  dissociated Fragments: LV, large vesicles: 97%
